Data on 33 compounds can be found in patent publication US10526327B2, “Histone demethylase inhibitors” (CELGENE QUANTICEL RESEARCH, INC., priority 2013, dated 2020).

Some results are limits rather than exact numbers.

For this test, the target named is T1, JMJD2C (Homo sapiens, UniProt Q9H3R0).
T1 construct: purchased BPS Bioscience 50105
T1 sequence (Q9H3R0 2-372): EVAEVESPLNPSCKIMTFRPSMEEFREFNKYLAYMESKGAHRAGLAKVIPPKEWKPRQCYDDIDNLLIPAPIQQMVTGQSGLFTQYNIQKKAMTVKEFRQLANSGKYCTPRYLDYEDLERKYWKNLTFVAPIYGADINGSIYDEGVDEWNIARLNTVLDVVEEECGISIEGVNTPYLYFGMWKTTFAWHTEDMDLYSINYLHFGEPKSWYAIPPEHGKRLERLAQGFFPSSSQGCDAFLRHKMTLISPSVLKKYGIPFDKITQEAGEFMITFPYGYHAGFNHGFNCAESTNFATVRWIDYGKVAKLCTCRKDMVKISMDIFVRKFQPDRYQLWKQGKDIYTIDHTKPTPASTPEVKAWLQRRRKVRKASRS
The test is described as follows: JMJD2C in vitro enzyme inhibition assay (TR-FRET). It counts as biochemical. In outline: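 Baculovirus-expressed human JMJD2C (AA 2-372) at 0.3 nM demethylated 300 nM biotin-H3K9me3 peptide with 2 μM alpha-ketoglutarate in HEPES pH 7.3 containing ascorbate and Fe(II), 30 min at room temperature. EDTA-stopped product was read by TR-FRET with Eu-anti-H3K9me2 and streptavidin-APC; 665/615 ratios from 11-point dilutions gave IC50.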
For orientation: In TR-FRET formats the signal depends on donor and acceptor labels being close together.

`Oc1nc(Oc2cnn([C@@H]3CCN(c4ccc(F)cc4)C3)c2)nc2cnccc12` [Example 134, 2-({1-[(3R)-1-(4-fluorophenyl)pyrrolidin-3-yl]-1H-pyrazol-4-yl}oxy)pyrido[3,4-d]pyrimidin-4-ol] yielded an IC50 not above 100 nM. As to `Oc1nc(Oc2cnn([C@H]3CCNC3)c2)nc2cnccc12` [Example 135, 2-({1-[(3S)-pyrrolidin-3-yl]-1H-pyrazol-4-yl}oxy)pyrido[3,4-d]pyrimidin-4-ol], the IC50 is not above 100 nM. With `CCS(=O)(=O)N1CC[C@H](n2cc(Oc3nc(O)c4ccncc4n3)cn2)C1` [Example 136, 2-({1-[(3S)-1-(ethanesulfonyl)pyrrolidin-3-yl]-1H-pyrazol-4-yl}oxy)pyrido[3,4-d]pyrimidin-4-ol], the IC50 was not above 100 nM. In turn, `O=S(=O)(C1CC1)N1CC[C@H](n2cc(Oc3nc(O)c4ccncc4n3)cn2)C1` [Example 137, 2-({1-[(3S)-1-(cyclopropanesulfonyl)pyrrolidin-3-yl]-1H-pyrazol-4-yl}oxy)pyrido[3,4-d]pyrimidin-4-ol] had an IC50 not above 100 nM. Regarding `O=S(=O)(c1ccccc1)N1CC[C@H](n2cc(Oc3nc(O)c4ccncc4n3)cn2)C1` [Example 138, 2-({1-[(3S)-1-(benzenesulfonyl)pyrrolidin-3-yl]-1H-pyrazol-4-yl}oxy)pyrido[3,4-d]pyrimidin-4-ol], the IC50 was not above 100 nM. In turn, `CC(=O)N1CC[C@H](n2cc(Oc3nc(O)c4ccncc4n3)cn2)C1` [Example 139, 1-[(3S)-3-[4-({4-hydroxypyrido[3,4-d]pyrimidin-2-yl}oxy)-1H-pyrazol-1-yl]pyrrolidin-1-yl]ethan-1-one] registered an IC50 not above 100 nM. `N#CCC(=O)N1CC[C@H](n2cc(Oc3nc(O)c4ccncc4n3)cn2)C1` [Example 140, 3-[(3S)-3-[4-({4-hydroxypyrido[3,4-d]pyrimidin-2-yl}oxy)-1H-pyrazol-1-yl]pyrrolidin-1-yl]-3-oxopropanenitrile] showed an IC50 not above 100 nM. The compound `O=C(C1CC1)N1CC[C@H](n2cc(Oc3nc(O)c4ccncc4n3)cn2)C1` [Example 141, 2-({1-[(3S)-1-cyclopropanecarbonylpyrrolidin-3-yl]-1H-pyrazol-4-yl}oxy)pyrido[3,4-d]pyrimidin-4-ol] registered an IC50 not above 100 nM. For `O=C(c1ccccc1)N1CC[C@H](n2cc(Oc3nc(O)c4ccncc4n3)cn2)C1` [Example 142, 2-({1-[(3S)-1-benzoylpyrrolidin-3-yl]-1H-pyrazol-4-yl}oxy)pyrido[3,4-d]pyrimidin-4-ol], the IC50 is not above 100 nM. `O=C(C1CCNCC1)N1CC[C@H](n2cc(Oc3nc(O)c4ccncc4n3)cn2)C1` [Example 143, 2-({1-[(3S)-1-(piperidine-4-carbonyl)pyrrolidin-3-yl]-1H-pyrazol-4-yl}oxy)pyrido[3,4-d]pyrimidin-4-ol]: the 50% inhibitory concentration (IC50) is not above 100 nM. `CNCC(=O)N1CC[C@H](n2cc(Oc3nc(O)c4ccncc4n3)cn2)C1` [Example 144, 1-[(3S)-3-[4-({4-hydroxypyrido[3,4-d]pyrimidin-2-yl}oxy)-1H-pyrazol-1-yl]pyrrolidin-1-yl]-2-(methylamino)ethan-1-one] gave an IC50 not above 100 nM.

In turn, `Oc1nc(Oc2cnn([C@H]3CCN(c4ccccc4)C3)c2)nc2cnccc12` [Example 145, 2-({1-[(3S)-1-phenylpyrrolidin-3-yl]-1H-pyrazol-4-yl}oxy)pyrido[3,4-d]pyrimidin-4-ol] returned an IC50 not above 100 nM. Next, `Oc1nc(Oc2cnn([C@H]3CCN(c4ccc(F)cc4)C3)c2)nc2cnccc12` [Example 146, 2-({1-[(3S)-1-(4-fluorophenyl)pyrrolidin-3-yl]-1H-pyrazol-4-yl}oxy)pyrido[3,4-d]pyrimidin-4-ol]: not above 100 nM.

For the compound `Oc1nc(Oc2cnn([C@H]3CCN(c4ccccc4F)C3)c2)nc2cnccc12` [Example 147, 2-({1-[(3S)-1-(2-fluorophenyl)pyrrolidin-3-yl]-1H-pyrazol-4-yl}oxy)pyrido[3,4-d]pyrimidin-4-ol], the IC50 is not above 100 nM. With `Oc1nc(Oc2cnn([C@H]3CCN(c4ccc(Cl)cc4)C3)c2)nc2cnccc12` [Example 148, 2-({1-[(3S)-1-(4-chlorophenyl)pyrrolidin-3-yl]-1H-pyrazol-4-yl}oxy)pyrido[3,4-d]pyrimidin-4-ol], the IC50 is not above 100 nM. Consider `Oc1nc(Oc2cnn([C@@H]3CCCNC3)c2)nc2cnccc12` [Example 149, 2-({1-[(3R)-piperidin-3-yl]-1H-pyrazol-4-yl}oxy)pyrido[3,4-d]pyrimidin-4-ol], for which the IC50 is not above 100 nM.

For `CCS(=O)(=O)N1CCC[C@@H](n2cc(Oc3nc(O)c4ccncc4n3)cn2)C1` [Example 150, 2-({1-[(3R)-1-(ethanesulfonyl)piperidin-3-yl]-1H-pyrazol-4-yl}oxy)pyrido[3,4-d]pyrimidin-4-ol], the IC50 is not above 100 nM. Consider `O=S(=O)(c1ccccc1)N1CCC[C@@H](n2cc(Oc3nc(O)c4ccncc4n3)cn2)C1` [Example 152, 2-({1-[(3R)-1-(benzenesulfonyl)piperidin-3-yl]-1H-pyrazol-4-yl}oxy)pyrido[3,4-d]pyrimidin-4-ol], for which the IC50 is not above 100 nM. To `CC(=O)N1CCC[C@@H](n2cc(Oc3nc(O)c4ccncc4n3)cn2)C1` [Example 153, 1-[(3R)-3-[4-({4-hydroxypyrido[3,4-d]pyrimidin-2-yl}oxy)-1H-pyrazol-1-yl]piperidin-1-yl]ethan-1-one] belongs not above 100 nM. To `N#CCC(=O)N1CCC[C@@H](n2cc(Oc3nc(O)c4ccncc4n3)cn2)C1` [Example 154, 3-[(3R)-3-[4-({4-hydroxypyrido[3,4-d]pyrimidin-2-yl}oxy)-1H-pyrazol-1-yl]piperidin-1-yl]-3-oxopropanenitrile] belongs not above 100 nM; to `O=C(CO)N1CC[C@H](n2cc(Oc3nc(O)c4ccncc4n3)cn2)C1` [Example 155, 2-hydroxy-1-[(3S)-3-[4-({4-hydroxypyrido[3,4-d]pyrimidin-2-yl}oxy)-1H-pyrazol-1-yl]pyrrolidin-1-yl]ethan-1-one], not above 100 nM. On to `O=C(C1CC1)N1CCC[C@@H](n2cc(Oc3nc(O)c4ccncc4n3)cn2)C1` [Example 156, 2-({1-[(3R)-1-cyclopropanecarbonylpiperidin-3-yl]-1H-pyrazol-4-yl}oxy)pyrido[3,4-d]pyrimidin-4-ol], for which the IC50 was not above 100 nM. In turn, `O=C(c1ccccc1)N1CCC[C@@H](n2cc(Oc3nc(O)c4ccncc4n3)cn2)C1` [Example 157, 2-({1-[(3R)-1-benzoylpiperidin-3-yl]-1H-pyrazol-4-yl}oxy)pyrido[3,4-d]pyrimidin-4-ol] registered an IC50 not above 100 nM. Next, `Oc1nc(Oc2cnn([C@@H]3CCCN(Cc4ccccc4)C3)c2)nc2cnccc12` [Example 158, 2-({1-[(3R)-1-benzylpiperidin-3-yl]-1H-pyrazol-4-yl}oxy)pyrido[3,4-d]pyrimidin-4-ol]: not above 100 nM; `Oc1nc(Oc2cnn([C@@H]3CCCN(c4ccc(F)cc4)C3)c2)nc2cnccc12` [Example 159, 2-({1-[(3R)-1-(4-fluorophenyl)piperidin-3-yl]-1H-pyrazol-4-yl}oxy)pyrido[3,4-d]pyrimidin-4-ol]: not above 100 nM; `Oc1nc(Oc2cnn([C@H]3CCCNC3)c2)nc2cnccc12` [Example 160, 2-({1-[(3S)-piperidin-3-yl]-1H-pyrazol-4-yl}oxy)pyrido[3,4-d]pyrimidin-4-ol]: not above 100 nM. `CCS(=O)(=O)N1CCC[C@H](n2cc(Oc3nc(O)c4ccncc4n3)cn2)C1` [Example 161, 2-({1-[(3S)-1-(ethanesulfonyl)piperidin-3-yl]-1H-pyrazol-4-yl}oxy)pyrido[3,4-d]pyrimidin-4-ol] displayed an IC50 not above 100 nM.

`O=S(=O)(C1CC1)N1CCC[C@H](n2cc(Oc3nc(O)c4ccncc4n3)cn2)C1` [Example 162, 2-({1-[(3S)-1-(cyclopropanesulfonyl)piperidin-3-yl]-1H-pyrazol-4-yl}oxy)pyrido[3,4-d]pyrimidin-4-ol] yielded an IC50 not above 100 nM. On to `O=S(=O)(c1ccccc1)N1CCC[C@H](n2cc(Oc3nc(O)c4ccncc4n3)cn2)C1` [Example 163, 2-({1-[(3S)-1-(benzenesulfonyl)piperidin-3-yl]-1H-pyrazol-4-yl}oxy)pyrido[3,4-d]pyrimidin-4-ol], for which the IC50 was not above 100 nM.

The compound `CC(=O)N1CCC[C@H](n2cc(Oc3nc(O)c4ccncc4n3)cn2)C1` [Example 164, 1-[(3S)-3-[4-({4-hydroxypyrido[3,4-d]pyrimidin-2-yl}oxy)-1H-pyrazol-1-yl]piperidin-1-yl]ethan-1-one] came in with an IC50 not above 100 nM.

`O=C(C1CC1)N1CCC[C@H](n2cc(Oc3nc(O)c4ccncc4n3)cn2)C1` [Example 165, 2-({1-[(3S)-1-cyclopropanecarbonylpiperidin-3-yl]-1H-pyrazol-4-yl}oxy)pyrido[3,4-d]pyrimidin-4-ol] registered an IC50 not above 100 nM. Compound `N#CCC(=O)N1CCC[C@H](n2cc(Oc3nc(O)c4ccncc4n3)cn2)C1` [Example 166, 3-[(3S)-3-[4-({4-hydroxypyrido[3,4-d]pyrimidin-2-yl}oxy)-1H-pyrazol-1-yl]piperidin-1-yl]-3-oxopropanenitrile] gave an IC50 not above 100 nM.

In the case of `O=C(c1ccccc1)N1CCC[C@H](n2cc(Oc3nc(O)c4ccncc4n3)cn2)C1` [Example 167, 2-({1-[(3S)-1-benzoylpiperidin-3-yl]-1H-pyrazol-4-yl}oxy)pyrido[3,4-d]pyrimidin-4-ol], the IC50 was not above 100 nM.

The term IC50 denotes the concentration needed to halve the response being measured.
